Structures are written as SMILES.

The test system of this experiment is lentiviral pseudoparticles carrying H1-HA and N1-NA (from A/PR/8/34). In kind it is cell-based, influenza A virus. Particulars: control compounds; MDCK cells; Fig. 3.
Regarding `CCc1ccccc1OCCN1CCCCCC1` [Compound 81], the “inhibition of pseudoparticle entry, in words” value is “Strong and dose-dependent inhibition”.
For `COC(=O)[C@@H]1NC(=O)[C@@H]2NC(=O)[C@H](NC(=O)[C@@H]3NC(=O)[C@H]4NC(=O)[C@H](NC(=O)[C@H](Nc5c(NCc6ccc(-c7ccccc7)cc6)c(=O)c5=O)c5ccc(O)c(c5)Oc5cc4cc(O)c5C)[C@H](O)c4ccc(cc4)Oc4cc3cc(c4O)Oc3ccc(cc3)[C@H]2O)c2ccc(O)c(c2)-c2c(O)cc(O)cc21` [SA-19] the value was “Strong and dose-dependent inhibition”; for `CCN(CC)CCCC(C)Nc1ccnc2cc(Cl)ccc12` (stereo not shown) [chloroquine], “Strong and dose-dependent inhibition”.
For `CC(C)c1ccccc1NCCN1CCCCC1.Cl` [Compound 80], the “inhibition of pseudoparticle entry, in words” value was “Strong and dose-dependent inhibition”.

These data come from publication PMC7115582 (European Journal of Medicinal Chemistry, 2018).
